This note sets out measurements from PMC10092844, “Inhibition profile of trifludimoxazin towards PPO2 target site mutations” (Pest Management Science, 2022).

The target of one assay is T1, PPO2 R128I ΔG210 (Amaranthus tuberculatus, UniProt Q0NZW9, DEL210-210/R128I).
T1 sequence (Q0NZW9 with tags, fused parts or gaps R128I/DEL210-210): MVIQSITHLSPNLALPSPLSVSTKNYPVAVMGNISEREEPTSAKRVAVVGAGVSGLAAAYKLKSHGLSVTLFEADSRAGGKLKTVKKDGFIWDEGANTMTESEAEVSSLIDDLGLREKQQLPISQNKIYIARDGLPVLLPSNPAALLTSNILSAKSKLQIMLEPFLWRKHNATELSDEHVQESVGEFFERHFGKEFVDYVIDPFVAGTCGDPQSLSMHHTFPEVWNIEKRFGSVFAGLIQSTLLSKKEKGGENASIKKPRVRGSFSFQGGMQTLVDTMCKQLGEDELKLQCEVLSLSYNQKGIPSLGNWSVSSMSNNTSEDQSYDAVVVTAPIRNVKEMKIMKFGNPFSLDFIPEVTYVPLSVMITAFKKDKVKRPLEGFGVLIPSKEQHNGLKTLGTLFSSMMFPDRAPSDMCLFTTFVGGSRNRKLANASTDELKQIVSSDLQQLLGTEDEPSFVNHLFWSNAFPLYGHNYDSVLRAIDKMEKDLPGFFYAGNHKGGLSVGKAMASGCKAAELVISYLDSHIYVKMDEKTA
The assay is described as follows: biochemical. Format: biochemical.

Another assay addresses T2, PPO2 R128L ΔG210 (Amaranthus tuberculatus, UniProt Q0NZW9, DEL210-210/R128L).
T2 sequence (Q0NZW9 with tags, fused parts or gaps R128L/DEL210-210): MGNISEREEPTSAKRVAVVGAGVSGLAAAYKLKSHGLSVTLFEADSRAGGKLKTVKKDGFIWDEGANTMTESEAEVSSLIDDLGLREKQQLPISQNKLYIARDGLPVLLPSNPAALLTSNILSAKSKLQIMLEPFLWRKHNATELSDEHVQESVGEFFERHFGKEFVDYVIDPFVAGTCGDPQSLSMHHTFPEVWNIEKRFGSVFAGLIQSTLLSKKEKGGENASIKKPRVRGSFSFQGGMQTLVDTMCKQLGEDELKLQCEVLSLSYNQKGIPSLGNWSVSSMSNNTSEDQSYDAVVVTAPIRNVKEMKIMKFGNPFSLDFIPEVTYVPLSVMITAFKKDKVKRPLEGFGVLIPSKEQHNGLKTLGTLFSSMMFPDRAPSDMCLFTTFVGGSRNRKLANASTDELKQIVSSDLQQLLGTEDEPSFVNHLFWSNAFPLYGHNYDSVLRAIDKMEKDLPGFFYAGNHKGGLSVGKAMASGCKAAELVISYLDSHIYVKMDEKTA
The assay is described as follows: biochemical. The class given is biochemical.

The target in the next assay is T3, PPO2 R128T ΔG210 (Amaranthus tuberculatus, UniProt Q0NZW9, DEL210-210/R128T).
T3 sequence (Q0NZW9 with tags, fused parts or gaps R128T/DEL210-210): T1 sequence (Q0NZW9 with tags, fused parts or gaps R128I/DEL210-210) with I128T
The class given is biochemical.

Assay [1] addresses T4, PPO2 R128A ΔG210 in Escherichia coli hemG (Amaranthus tuberculatus, UniProt Q0NZW9, DEL210/R128A, cells depend on it).
T4 sequence (Q0NZW9 with tags, fused parts or gaps R128A/DEL210): T2 sequence (Q0NZW9 with tags, fused parts or gaps R128L/DEL210-210) with L98A
Format: cell-based. The settings on record: read-out: IC50 (E. coli hemG growth).

For assay [2], the target named is T5, PPO2 R128E ΔG210 in Escherichia coli hemG (Amaranthus tuberculatus, UniProt Q0NZW9, DEL210/R128E, cells depend on it).
T5 sequence (Q0NZW9 with tags, fused parts or gaps R128E/DEL210): T2 sequence (Q0NZW9 with tags, fused parts or gaps R128L/DEL210-210) with L98E
Format: cell-based. The settings on record: read-out: IC50 (E. coli hemG growth).

Assay [3] concerns the target T6, PPO2 R128L ΔG210 in Escherichia coli hemG (Amaranthus tuberculatus, UniProt Q0NZW9, DEL210-210/R128L, cells depend on it).
T6 sequence (Q0NZW9 with tags, fused parts or gaps R128L/DEL210-210): T2 sequence (Q0NZW9 with tags, fused parts or gaps R128L/DEL210-210)
The class given is cell-based. As to conditions: read-out: IC50 (E. coli hemG growth).

Positions count from the first letter of the chain named. Some results are limits rather than exact numbers.

In the case of `CS(=O)(=O)NC(=O)c1cc(Oc2ccc(C(F)(F)F)cc2Cl)ccc1[N+](=O)[O-]` [Fomesafen, fomesafen], the IC50 at PPO2 R128I ΔG210, against PPO2 R128L ΔG210 and against PPO2 R128T ΔG210 was over 10 µM each time.

Regarding `CC(C)N(C)S(=O)(=O)NC(=O)c1cc(-n2c(=O)cc(C(F)(F)F)n(C)c2=O)c(F)cc1Cl` [Saflufenacil, saflufenacil], the IC50 (on PPO2 R128I ΔG210; at PPO2 R128L ΔG210; on PPO2 R128T ΔG210; in assay [1]; in assay [2]; in assay [3]) was over 10 µM throughout.

Regarding `C#CCN1C(=O)C(F)(F)Oc2cc(F)c(-n3c(=O)n(C)c(=S)n(C)c3=O)cc21` [Trifludimoxazin, trifludimoxazin], the IC50 on PPO2 R128I ΔG210 is 0.0993 µM; against PPO2 R128L ΔG210, 0.00568 µM; on PPO2 R128T ΔG210, 0.0748 µM; in assay [1], 0.0465 µM; in assay [2] it was 0.00987 µM; in assay [3], 0.0399 µM. For the same molecule, the Resistance factor on PPO2 R128I ΔG210 was 405; at PPO2 R128L ΔG210 it was 23; at PPO2 R128T ΔG210 it was 305.

As for `CCOC(=O)C(C)OC(=O)c1cc(Oc2ccc(C(F)(F)F)cc2Cl)ccc1[N+](=O)[O-]` (stereo not drawn) [Lactofen, lactofen], the IC50 is 1.95 µM against PPO2 R128I ΔG210; 0.649 µM on PPO2 R128L ΔG210; 3.92 µM against PPO2 R128T ΔG210; over 10 µM in assay [1]; 2.89 µM in assay [2]; over 10 µM in assay [3].

The term IC50 denotes the concentration that gives 50% inhibition.
